Values quoted from earlier work, collected in patent US20020115211A1, “A METHOD FOR IN VITRO MATURATION OF HUMAN GAMETES” (MEDI-CULT A/S, priority 1998, published 2002).

System: immature human gametes
Conditions: presence in the culture medium; recent research

**Q.** Which “effect on the chance for successful pregnancy” value does the source give for “insulin: Component of the SSR media additives” here?
**A.** negative effect
